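Grown in 96-well plates, cells were treated for 48 hours with each compound at five concentrations. Insufficient inhibition: endpoint recorded as highest concentration tested. GI50 is the concentration that inhibits growth by half.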 Activity calls are given as the source filed them. No stated cut-off is given here; in the data, active = GI50 up to about 1.1 µM and inactive = higher.
Experiments:
Experiment in all cases: NCI anticancer screen, dose series, 48 h
Hs-578T = system: Hs-578T
NCI-H23 = system: NCI-H23
OVCAR-8 = system: OVCAR-8
SK-MEL-5 = system: SK-MEL-5
SK-OV-3 = system: SK-OV-3
SK-MEL-28 = system: SK-MEL-28
OVCAR-5 = system: OVCAR-5
OVCAR-3 = system: OVCAR-3
UACC-62 = system: UACC-62
M14 = system: M14
MDA-N = system: MDA-N
RPMI-8226 = system: RPMI-8226
HOP-62 = system: HOP-62
SK-MEL-2 = system: SK-MEL-2
MCF7 = system: MCF7
CCRF-CEM = system: CCRF-CEM
SN12C = system: SN12C
DU-145 = system: DU-145
SNB-75 = system: SNB-75
U-251 = system: U-251
MOLT-4 = system: MOLT-4
T47D = system: T47D
NCI-H226 = system: NCI-H226
HCT-15 = system: HCT-15
RXF 393 = system: RXF 393
PC-3 = system: PC-3
UACC-257 = system: UACC-257
COLO 205 = system: COLO 205
HL-60 = system: HL-60
HCC 2998 = system: HCC 2998
A549 = system: A549
CAKI-1 = system: CAKI-1
MDA-MB-231 = system: MDA-MB-231
HOP-92 = system: HOP-92
SNB-19 = system: SNB-19
ACHN = system: ACHN
HCT-116 = system: HCT-116
UO-31 = system: UO-31
MDA-MB-435 = system: MDA-MB-435
EKVX = system: EKVX
A498 = system: A498
NCI/ADR-RES = system: NCI/ADR-RES
NCI-H460 = system: NCI-H460
K562 = system: K562
SW-620 = system: SW-620
SF-268 = system: SF-268
KM12 = system: KM12
786-0 = system: 786-0
SR = system: SR
LOX IMVI = system: LOX IMVI
OVCAR-4 = system: OVCAR-4
SF-295 = system: SF-295
SF-539 = system: SF-539
IGROV-1 = system: IGROV-1
HT-29 = system: HT-29
BT-549 = system: BT-549
TK-10 = system: TK-10
NCI-H522 = system: NCI-H522
Malme-3M = system: Malme-3M

COC(CC1(/C=C/O[Si](C(C)C)(C(C)C)C(C)C)C(=O)N(C)c2ccccc21)OC (configuration not stated)
GI50 (Hs-578T): 15.9 µM (inactive)
GI50 (NCI-H23): 42.1 µM (inactive)
GI50 (OVCAR-8): 54.3 µM (inactive)
GI50 (SK-MEL-5): 36.8 µM (inactive)
GI50 (SK-OV-3): 35.7 µM (inactive)
GI50 (SK-MEL-28): > 100 µM (inactive)
GI50 (OVCAR-5): > 100 µM (inactive)
GI50 (OVCAR-3): > 100 µM (inactive)
GI50 (UACC-62): > 100 µM (inactive)
GI50 (M14): 94.8 µM (inactive)
GI50 (MDA-N): > 100 µM (inactive)
GI50 (RPMI-8226): 15.3 µM (inactive)
GI50 (HOP-62): 58.1 µM (inactive)
GI50 (SK-MEL-2): > 100 µM (inactive)
GI50 (MCF7): 36.8 µM (inactive)
GI50 (CCRF-CEM): 64.7 µM (inactive)
GI50 (SN12C): 78.9 µM (inactive)
GI50 (DU-145): > 100 µM (inactive)
GI50 (SNB-75): > 100 µM (inactive)
GI50 (U-251): 51.9 µM (inactive)
GI50 (MOLT-4): 55.3 µM (inactive)
GI50 (T47D): 55.3 µM (inactive)
GI50 (NCI-H226): 24.1 µM (inactive)
GI50 (HCT-15): 40.9 µM
GI50 (RXF 393): 59.6 µM (inactive)
GI50 (PC-3): 49.3 µM (inactive)
GI50 (UACC-257): 47 µM (inactive)
GI50 (COLO 205): 58.9 µM (inactive)
GI50 (HL-60): 51.8 µM (inactive)
GI50 (HCC 2998): 64 µM (inactive)
GI50 (A549): 45.2 µM (inactive)
GI50 (CAKI-1): > 100 µM (inactive)
GI50 (MDA-MB-231): > 100 µM (inactive)
GI50 (HOP-92): > 100 µM (inactive)
GI50 (SNB-19): > 100 µM (inactive)
GI50 (ACHN): 62.5 µM (inactive)
GI50 (HCT-116): 28.5 µM (inactive)
GI50 (UO-31): 68.2 µM (inactive)
GI50 (MDA-MB-435): 76.2 µM (inactive)
GI50 (EKVX): 46 µM (inactive)
GI50 (A498): > 100 µM (inactive)
GI50 (NCI/ADR-RES): 22.9 µM (inactive)
GI50 (NCI-H460): 45.9 µM (inactive)
GI50 (K562): 51.5 µM (inactive)
GI50 (SW-620): > 100 µM (inactive)
GI50 (SF-268): 36.6 µM (inactive)
GI50 (KM12): 39.4 µM (inactive)
GI50 (786-0): 18.4 µM (inactive)
GI50 (SR): 31.6 µM (inactive)
GI50 (LOX IMVI): 33.4 µM (inactive)
GI50 (OVCAR-4): 34.5 µM (inactive)
GI50 (SF-295): 28.6 µM (inactive)

Cc1ccccc1NC(=O)NC(Oc1ccccc1)(C(F)(F)F)C(F)(F)F
GI50 (Hs-578T): > 100 µM (inactive)
GI50 (NCI-H23): > 100 µM (inactive)
GI50 (SK-OV-3): > 100 µM (inactive)
GI50 (SK-MEL-28): > 100 µM (inactive)
GI50 (OVCAR-5): > 100 µM (inactive)
GI50 (M14): > 100 µM (inactive)
GI50 (RPMI-8226): > 100 µM (inactive)
GI50 (SK-MEL-2): > 100 µM (inactive)
GI50 (CCRF-CEM): > 100 µM (inactive)
GI50 (SNB-75): > 100 µM (inactive)
GI50 (U-251): > 100 µM (inactive)
GI50 (MOLT-4): > 100 µM (inactive)
GI50 (T47D): > 100 µM (inactive)
GI50 (RXF 393): 73.1 µM (inactive)
GI50 (UACC-257): > 100 µM (inactive)
GI50 (COLO 205): > 100 µM (inactive)
GI50 (HL-60): > 100 µM (inactive)
GI50 (HCC 2998): > 100 µM (inactive)
GI50 (CAKI-1): 22.4 µM (inactive)
GI50 (SF-539): > 100 µM (inactive)
GI50 (IGROV-1): > 100 µM (inactive)
GI50 (SNB-19): > 100 µM (inactive)
GI50 (ACHN): > 100 µM (inactive)
GI50 (HCT-116): > 100 µM (inactive)
GI50 (UO-31): > 100 µM (inactive)
GI50 (MDA-MB-435): > 100 µM (inactive)
GI50 (A498): > 100 µM (inactive)
GI50 (HT-29): > 100 µM (inactive)
GI50 (NCI/ADR-RES): > 100 µM (inactive)
GI50 (K562): > 100 µM (inactive)
GI50 (SF-268): > 100 µM (inactive)
GI50 (786-0): > 100 µM (inactive)
GI50 (BT-549): > 100 µM (inactive)
GI50 (SR): > 100 µM (inactive)

CC1=NN(c2cccc(Cl)c2)C2(SCC(=O)N2c2nc3ccccc3s2)/C1=C\c1ccccc1O (configuration not stated)
GI50 (Hs-578T): 27.8 µM (inactive)
GI50 (NCI-H23): 16 µM (inactive)
GI50 (OVCAR-8): 18.1 µM (inactive)
GI50 (SK-MEL-5): 13.4 µM (inactive)
GI50 (TK-10): 42.4 µM (inactive)
GI50 (SK-OV-3): 18.4 µM (inactive)
GI50 (SK-MEL-28): 24.8 µM (inactive)
GI50 (OVCAR-5): 25.4 µM (inactive)
GI50 (OVCAR-3): 15.8 µM (inactive)
GI50 (M14): 21.7 µM (inactive)
GI50 (MDA-N): 22.3 µM (inactive)
GI50 (RPMI-8226): 11.9 µM (inactive)
GI50 (HOP-62): 20.9 µM (inactive)
GI50 (SK-MEL-2): 17.6 µM (inactive)
GI50 (MCF7): 20 µM (inactive)
GI50 (CCRF-CEM): 15.1 µM (inactive)
GI50 (NCI-H522): 19.8 µM (inactive)
GI50 (DU-145): 18.3 µM (inactive)
GI50 (U-251): 19.2 µM (inactive)
GI50 (MOLT-4): 11.9 µM (inactive)
GI50 (T47D): 3.99 µM (inactive)
GI50 (NCI-H226): 34.3 µM (inactive)
GI50 (HCT-15): 14.6 µM
GI50 (RXF 393): 17 µM (inactive)
GI50 (PC-3): 19.8 µM (inactive)
GI50 (UACC-257): 31.4 µM (inactive)
GI50 (HL-60): 14.2 µM (inactive)
GI50 (HCC 2998): 21.6 µM (inactive)
GI50 (CAKI-1): 21.4 µM (inactive)
GI50 (MDA-MB-231): 20.2 µM (inactive)
GI50 (SF-539): 33.5 µM (inactive)
GI50 (IGROV-1): 17.4 µM (inactive)
GI50 (HOP-92): 10.1 µM (inactive)
GI50 (ACHN): 15.5 µM (inactive)
GI50 (HCT-116): 14.9 µM (inactive)
GI50 (UO-31): 15.7 µM (inactive)
GI50 (MDA-MB-435): 21.3 µM (inactive)
GI50 (EKVX): 30.5 µM (inactive)
GI50 (A498): 11 µM (inactive)
GI50 (HT-29): 23.4 µM (inactive)
GI50 (NCI/ADR-RES): 19.7 µM (inactive)
GI50 (NCI-H460): 31.8 µM (inactive)
GI50 (K562): 5.65 µM (inactive)
GI50 (SW-620): 16.7 µM (inactive)
GI50 (SF-268): 22.6 µM (inactive)
GI50 (KM12): 19.7 µM (inactive)
GI50 (786-0): 16.3 µM (inactive)
GI50 (SR): 13.7 µM (inactive)
GI50 (LOX IMVI): 30.5 µM (inactive)
GI50 (OVCAR-4): 21.4 µM (inactive)
GI50 (SF-295): 25.8 µM (inactive)

O=C(NC1(C(=O)NNc2nnc(-c3ccccc3)c(-c3ccccc3)n2)C(c2ccccc2)C(c2ccccc2)=NN1c1ccccc1)c1ccccc1 (configuration not stated)
GI50 (Hs-578T): > 100 µM (inactive)
GI50 (NCI-H23): > 100 µM (inactive)
GI50 (OVCAR-8): > 100 µM (inactive)
GI50 (SK-MEL-5): > 100 µM (inactive)
GI50 (TK-10): > 100 µM (inactive)
GI50 (SK-OV-3): > 100 µM (inactive)
GI50 (OVCAR-5): > 100 µM (inactive)
GI50 (OVCAR-3): > 100 µM (inactive)
GI50 (UACC-62): > 100 µM (inactive)
GI50 (M14): > 100 µM (inactive)
GI50 (HOP-62): > 100 µM (inactive)
GI50 (SK-MEL-2): > 100 µM (inactive)
GI50 (NCI-H522): > 100 µM (inactive)
GI50 (DU-145): > 100 µM (inactive)
GI50 (SNB-75): 55.8 µM (inactive)
GI50 (U-251): > 100 µM (inactive)
GI50 (MOLT-4): > 100 µM (inactive)
GI50 (T47D): > 100 µM (inactive)
GI50 (NCI-H226): > 100 µM (inactive)
GI50 (HCT-15): > 100 µM
GI50 (RXF 393): 22.6 µM (inactive)
GI50 (PC-3): > 100 µM (inactive)
GI50 (UACC-257): > 100 µM (inactive)
GI50 (COLO 205): > 100 µM (inactive)
GI50 (HL-60): 46.8 µM (inactive)
GI50 (HCC 2998): 63.4 µM (inactive)
GI50 (A549): > 100 µM (inactive)
GI50 (CAKI-1): > 100 µM (inactive)
GI50 (MDA-MB-231): > 100 µM (inactive)
GI50 (SF-539): > 100 µM (inactive)
GI50 (HOP-92): 73.1 µM (inactive)
GI50 (SNB-19): > 100 µM (inactive)
GI50 (ACHN): > 100 µM (inactive)
GI50 (HCT-116): > 100 µM (inactive)
GI50 (UO-31): 41.4 µM (inactive)
GI50 (MDA-MB-435): > 100 µM (inactive)
GI50 (EKVX): > 100 µM (inactive)
GI50 (A498): > 100 µM (inactive)
GI50 (HT-29): > 100 µM (inactive)
GI50 (NCI/ADR-RES): > 100 µM (inactive)
GI50 (NCI-H460): > 100 µM (inactive)
GI50 (SW-620): > 100 µM (inactive)
GI50 (SF-268): > 100 µM (inactive)
GI50 (KM12): > 100 µM (inactive)
GI50 (786-0): > 100 µM (inactive)
GI50 (Malme-3M): 64.1 µM (inactive)
GI50 (BT-549): > 100 µM (inactive)
GI50 (SR): > 100 µM (inactive)
GI50 (OVCAR-4): > 100 µM (inactive)
GI50 (SF-295): > 100 µM (inactive)
